Measurements: US10821079B2, “PKC activators and combinations thereof” (Cognitive Research Enterprises, Inc., priority 2011, dated 2020)

How the values were obtained:
[1] = target: T1, PKC-ε (Homo sapiens, UniProt Q02156); test: Activation of purified PKC isozymes, radiometric: PKC-ε; format: biochemical; settings: for Specificity ε/α: Activation of PKC-ε ÷ activation or inhibition of PKCα at 3 × EC50
T1 sequence (Q02156 1-737): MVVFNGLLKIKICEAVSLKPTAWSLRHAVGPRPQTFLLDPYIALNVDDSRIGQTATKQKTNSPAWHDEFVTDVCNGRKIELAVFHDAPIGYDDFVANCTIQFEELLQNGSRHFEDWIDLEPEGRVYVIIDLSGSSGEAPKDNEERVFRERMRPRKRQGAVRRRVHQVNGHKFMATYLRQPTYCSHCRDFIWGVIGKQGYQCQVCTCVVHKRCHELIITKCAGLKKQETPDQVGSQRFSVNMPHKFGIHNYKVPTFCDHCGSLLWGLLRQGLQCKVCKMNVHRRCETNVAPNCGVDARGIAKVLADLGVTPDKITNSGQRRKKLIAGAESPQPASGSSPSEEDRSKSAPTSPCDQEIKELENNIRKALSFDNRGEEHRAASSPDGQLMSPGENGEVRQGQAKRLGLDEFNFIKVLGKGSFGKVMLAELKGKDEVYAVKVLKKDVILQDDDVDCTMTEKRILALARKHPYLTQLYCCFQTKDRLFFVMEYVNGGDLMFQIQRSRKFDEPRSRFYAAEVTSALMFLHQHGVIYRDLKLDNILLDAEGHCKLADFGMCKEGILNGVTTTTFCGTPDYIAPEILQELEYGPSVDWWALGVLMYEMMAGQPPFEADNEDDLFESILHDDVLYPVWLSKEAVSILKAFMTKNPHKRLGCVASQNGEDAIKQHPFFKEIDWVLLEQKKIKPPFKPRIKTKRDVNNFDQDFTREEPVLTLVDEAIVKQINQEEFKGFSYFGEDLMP
Protocol: (§1) To measure PKC, 10 μl of cell homogenate or purified PKC isoform was incubated for 15 min at 37° C. in the presence of 10 μM histones, 4.89 mM CaCl2, 1.2 μg/μl phosphatidyl-L-serine, 0.18 μg/μl 1,2-dioctanoyl-sn-glycerol, 10 mM MgCl2, 20 mM HEPES (pH 7.4), 0.8 mM EDTA, 4 mM EGTA, 4% glycerol, 8 μg/ml aprotinin, 8 μg/ml leupeptin, and 2 mM benzamidine. [γ32P]ATP (0.5 μCi) was added and 32P-phosphoprotein formation was measured by adsorption onto phosphocellulose as described previously. See Nelson et al., J. Neurochemistry, 1995, 65: 2350-2357.
(§2) PKC activity of each compound was measured in the absence of diacylglycerol and phosphatidylserine and PKC-δ and PKC-ε were measured in the absence of added EGTA and CaCl2, as described by Kanno et al., J. Lipid Res., 2006, 47: 1146-1156. Low concentrations of Ca^2+ were needed because high Ca^2+ can interact with the PKC phosphatidylserine binding site and prevents activation. […] To determine their PKC isoform specificity, the compounds were pre-incubated with purified isoforms of PKC for five minutes and the PKC activity was measured radiometrically.
(§3) The activation and PKC isozyme specificity of DCPLA-ethyl ester was measured following the procedures in Example 1(B) and (C), except that 9 ng of the purified isozyme was used and it was pre-incubated for 5 minutes at room temperature (FIG. 3). PKC-ε activation by DCPLA-tert-butyl ester and DCPLA-retinyl ester was measured in the same manner as DCPLA-ethyl ester (FIG. 3).
The EC50 values, PKC specificity, and activation for a select number of DCPLA esters was determined (see Table 1). EC50 values were determined by measuring the lowest concentration that activates by 50% of maximum activation. […] The specificity and activation of PKC by the various esters of DCPLA were calculated from the measurements of activation of PKC isozymes.

[2] = target: PKCα (Homo sapiens, UniProt P17252); test: Activation of purified PKC isozymes, radiometric: PKC-α; format: biochemical
Protocol: (§4) To measure PKC activity, 10 μg of protein from either cytosol or membrane was incubated for 15 min at 37° C. in the presence of 10 μM histones, 4.89 mM CaCl2, 1.2 μg/μl phosphatidyl-L-serine, 0.18 μg/μl 1,2-dioctanoyl-sn-glycerol, 10 mM MgCl2, 20 mM HEPES (pH 7.4), 0.8 mM EDTA, 4 mM EGTA, 4% glycerol, 8 μg/ml aprotinin, 8 μg/ml leupeptin, 2 mM benzamidine, and 0.5 μCi of [γ-^32P]ATP. [^32P]Phosphoprotein formation was measured by adsorption onto phosphocellulose as described previously. See Nelson et al. (2009) J Biol Chem 284, 34514-34521. For measurements of activation by RA, PKC activity was measured in the absence of diacylglycerol (DAG) and phosphatidylserine, as described by Nelson et al. (2009) J Biol Chem 284, 34514-34521. PKC-δ and PKC-ε were measured in the absence of added EGTA and CaCl^2, as described by Kanno et al. (2006) J Lipid Res 47, 1146-1156. The enzyme was provided as a purified isozyme for in vitro experiments.
as §1, §2, §3

[3] = test system: phosphatidylserine (C2) binding site; test: 3H-DCPLA-ME binding to rat brain slices with competitors, film autoradiography
Protocol: To determine the binding site of DCPLA-ME, ^3H-DCPLA-ME was incubated with rat brain slices in the absence and presence of known C1 and C2 competitors. More specifically, rat brain sections were fixed with formaldehyde, sliced, and incubated with (1) ^3H-DCPLA-ME alone; (2) ^3H-DCPLA-ME with DCPLA; (3) ^3H-DCPLA-ME with Phorbol ester; or (4) ^3H-DCPLA-ME and Bryostatin 1. After incubation, the slices were washed with a buffer made of 130 mM NaCl, 5 mM MgCl, 5 mM KCl, 1 mM EGTA, and 0.1% bovine serum albumin in 10 mM HEPES-NaOH, pH 7.4, dried, and analyzed with film-autoradiography.

[4] = target: PKC-δ (Homo sapiens, UniProt Q05655); test: Activation of purified PKC isozymes, radiometric: PKC-δ; format: biochemical
PKC-δ, sequence (Q05655 whole entry): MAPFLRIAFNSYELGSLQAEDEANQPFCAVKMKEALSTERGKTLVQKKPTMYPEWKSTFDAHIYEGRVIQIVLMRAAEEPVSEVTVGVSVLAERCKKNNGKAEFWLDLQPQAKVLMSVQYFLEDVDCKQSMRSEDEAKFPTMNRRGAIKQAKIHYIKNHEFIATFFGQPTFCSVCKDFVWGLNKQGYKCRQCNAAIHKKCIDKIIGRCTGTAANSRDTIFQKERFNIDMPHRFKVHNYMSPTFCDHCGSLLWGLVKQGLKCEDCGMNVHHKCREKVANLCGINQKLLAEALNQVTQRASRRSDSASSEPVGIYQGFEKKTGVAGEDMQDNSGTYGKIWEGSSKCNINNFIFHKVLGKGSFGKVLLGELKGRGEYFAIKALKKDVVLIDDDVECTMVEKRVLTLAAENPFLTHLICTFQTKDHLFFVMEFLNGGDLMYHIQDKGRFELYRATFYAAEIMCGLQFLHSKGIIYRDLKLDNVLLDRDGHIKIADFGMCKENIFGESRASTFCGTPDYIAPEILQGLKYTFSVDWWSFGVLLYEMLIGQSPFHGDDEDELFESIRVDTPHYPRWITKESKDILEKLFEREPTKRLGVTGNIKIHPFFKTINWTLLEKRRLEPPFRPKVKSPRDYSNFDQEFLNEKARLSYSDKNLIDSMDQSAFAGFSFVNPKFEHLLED
Protocol: as §4, §1, §2

[5] = test system: rat hippocampal primary neurons; test: Synaptic marker immunofluorescence in rat hippocampal primary neurons; format: cell-based; settings: 50 nM ASPDs; 1 μM ADDLs; 20 hr
Protocol: Cells were grown in two chambered slides (Nunc, USA) at low density. For immunofluorescence staining, the cells were washed with PBS (pH 7.4) and fixed with 4% paraformaldehyde for 4 min. Following fixation, the cells were blocked and permeabilized with 5% serum and 0.3% Triton X 100 in 1×PBS for 30 min. The cells were washed three times with 1×PBS and incubated with primary antibodies for 1 hr at 1:100 dilution. The incubation slides were then washed again three times in 1×PBS and were incubated with the FITC anti-rabbit IgG and Rhodamine anti-mouse IgG for 1 hr at 1:400 dilution. The cells were further washed and treated with DAPI (4′,6-diamidino-2′-phenylindole, dihydrochloride) (Thermo Scientific, USA) to stain the nucleus. Finally, the slides were washed and mounted in Pro Long Gold antifade mounting solution (Invitrogen, USA) and were viewed under the LSM 710 Meta confocal microscope (Zeiss) at 350 nm, 490 nm, and 540 nm excitation and 470 nm, 525 nm, and 625 nm emission for DAPI, FITC, and Rhodamine respectively. Six individual fields at 63× oil lens magnification were analyzed for the mean fluorescence intensity (MFI) in each channel. The co-localization correlation generated by the ZEN software (Zeiss).
To estimate the synaptic damage caused by the ASPDs on primary hippocampal neurons, the expression of synaptophysin (a presynaptic marker) and PSD-95 (a postsynaptic marker) was measured by immunofluorescence staining. […] Following a 20 hr incubation period, the cells were stained for nucleus, PSD-95, and synaptophysin. Expression levels were calculated as the change of percentage in mean fluorescence intensity compared to untreated cells.
Primary neurons, treated and untreated, were immunostained for MAP-2, synaptophysin, and PSD-95 to determine the synaptic integrity. […] Following a 20 hr incubation period, the cells were stained for MAP-2, PSD-95, and synaptophysin as described above.

[6] = test system: PKC-ε; test: PKC-ε translocation to membrane in SH-SY5Y cells (Western blot); format: cell-based, human; settings: ASPD; ADDL at 20-fold higher concentrations
Protocol: Cells were harvested in homogenizing buffer containing 10 mM Tris-Cl (pH 7.4), 1 mM PMSF (phenylmethylsulfonyl fluoride), 1 mM EGTA, 1 mM EDTA, 50 mM NaF, and 20 μM leupeptin and were lysed by sonication. The homogenate was centrifuged at 100,000×g for 15 min at 4° C. to obtain the cytosolic fraction (supernatant) and membrane (pellet). The pellet was resuspended in the homogenizing buffer by sonication. Protein concentration was measured using the Coomassie Plus (Bradford) Protein Assay kit (Pierce, USA). Following quantification, 20 μg of protein from each sample was subjected to SDS-PAGE analysis in 4-20% gradient Tris-Glycine gel (Invitrogen, USA). The separated protein was then transferred to nitrocellulose membrane. The membrane was blocked with BSA at room temperature for 15 min and was incubated with primary antibody over night at 4° C. After the incubation, it was washed three times with TBS-T (Tris Buffered saline-Tween 20) and further incubated with alkaline phosphatase conjugated secondary antibody (Jackson Immunoresearch Laboratories, USA) at 1:10,000 dilution for 45 min. The membrane was finally washed three times with TBS-T and developed using the 1-step NBT-BCIP substrate (Pierce, USA). Western Blot was imaged in the ImageQuant RT-ECL (GE Life Sciences, Piscataway, N.J.) and densitometric quantification was performed using the IMAL software (Blanchette Rockefeller Neurosciences Institute, Morgantown, W. Va.). For translocation assays, PKC activation was represented as the percentage of total protein in the membrane (membrane/cytosol+membrane).
Equal amounts of proteins were loaded in each lane (20 μg) for both the cytosol and membrane fractions. Activation of PKC was calculated as the percentage of total PKC in the membrane (membrane/cytosol+membrane).

[7] = test system: rat primary hippocampal neurons; test: Neurotoxic effect of Aβ1-42 assemblies, MTT viability; format: cell-based; settings: 20 hr
Protocol: Viability of cells was measured by MTT assay. MTT (3-(4,5-Dimethylthiazol-2-yl)-2,5-diphenyltetrazolium bromide) is a tetrazolium salt that is cleaved to formazan by the succinate dehydrogenase, which is only active in viable cells. After solubilization of the formazan, the amount of dye can be quantified with a microplate reader at 570 nm along with a reference of 630 nm. For MTT assay, 5×104 primary rat hippocampal neurons from 18-day-old embryonic Sprague-Dawley rat brains were plated on each well of 24-well plates coated with poly-D-lysine. After treatment, the cells were washed with 1×PBS and were incubated with 200 μl of 1 mg/ml MTT solution (Sigma, USA) at 37° C. for 2 hr. Then the MTT-solution was removed and the cells were lysed with 200 μl isopropanol containing 0.04 M HCl and 160 mM NaOH for 10 min. Finally, the reading was done at 570 nm and 630 nm. All the samples were done in triplicates and the data was represented as the percentage of control.
To assess the neurotoxic effect of different sized oligomers, rat primary hippocampal neurons were treated with variable concentrations of these Aβ1-42 species for 20 hr. Viability of the treated cells was compared to untreated cells using the MTT assay.

CCCCC/C=C\C/C=C\CCCCCCCC(=O)O[C@H]1CC[C@@]2(C)C(=CC[C@H]3[C@@H]4CC[C@H]([C@H](C)CCCC(C)C)[C@@]4(C)CC[C@@H]32)C1 [Cholesteryl linoleate, cholesteryl linoleate]
PKC-ε activation (in words) [1]: little or no activation | PKC-α activation [2]: 20%

CCCCCC1CC1CC1CC1CCCCCCCC(=O)O (stereo not shown) [DCPLA, cyclopropanated linoleic acid]
Specificity ε/α [1]: 7.4 | 3H-DCPLA-ME binding, 30 nM competitor [3]: 86% | 3H-DCPLA-ME binding, 1 μM competitor [3]: 35%

CCCCCC1CC1CC1CC1CCCCCCCC(=O)OC1CC[C@@]2(C)C(=CC[C@H]3[C@H]4CC[C@H]([C@H](C)CCCC(C)C)[C@@]4(C)CC[C@H]32)C1 (stereo partly shown) [DCPLA-cholesteryl ester]
PKC-ε activation at peak [1]: up to 130 % of control | concentration of maximal activation [1]: 0.01 nM | Specificity ε/α [1]: 0.94 | potency relative to Bryostatin-1 ([1]; concentration of maximal activity): 18 × | PKC-δ activation [4]: up to 130 % of control | effect on PKC-α (in words) [2]: inhibited at all concentrations

CCCCCCCCC1CC1CCCCCCCCOC(=O)CCCCCCCC1CC1CC1CC1CCCCC (stereo not shown) [DCPLA-cyclopropanated oleyl ester]
PKC-ε activation at peak [1]: 140 % of control | concentration of maximal activation [1]: 10 nM | Specificity ε/α [1]: 8.1

CCCCCC1CC1CC1CC1CCCCCCCC(=O)OCC (stereo not shown) [DCPLA-ethyl ester]
Specificity ε/α [1]: 4.2

CCCCCC1CC1CC1CC1CCCCCCCC(=O)OC/C=C(C)/C=C/C=C(C)/C=C/C1=C(C)CCCC1(C)C (stereo not shown) [DCPLA-retinyl ester]
EC50 ([1]; lowest concentration that activates by 50% of maximum activation): 10 nM | Activation ([1]; of PKCε at maximum): 129 % of control

CCCC(=O)O[C@@H]1[C@@H](C)[C@@]2(O)[C@@H](C=C(CO)C[C@]3(O)C(=O)C(C)=C[C@@H]23)[C@@H]2C(C)(C)[C@]12OC(=O)CCC [Phorbol ester (PdBu)]
3H-DCPLA-ME binding, 30 nM competitor [3]: 100% | 3H-DCPLA-ME binding, 1 μM competitor [3]: 81%

ADDL: Aβ derived diffusible ligands prepared from Aβ1-42
synaptophysin intensity compared to the control [5]: 75.64±4.84% | PKC-ε membrane translocation [6]: 80.82±4.025% | Viability of primary neuron (Mean ± SEM) ([7]; 50 nM): 91.35 ± 1.44 % of control | Viability of primary neuron (Mean ± SEM) ([7]; 500 nM): 79.01 ± 11.32 % of control | viability of neurons ([7]; 1 μM): 50.98±3.8% | Viability of primary neuron (Mean ± SEM) ([7]; 1000 nM): 49.02 ± 7.26 % of control

oAβ <100 kDa: filtrate from the 100 kDa filtration of the ASPD preparation
Viability of primary neuron (Mean ± SEM) ([7]; 50 nM): 76.01 ± 5.54 % of control | Viability of primary neuron (Mean ± SEM) ([7]; 500 nM): 62.94 ± 9.53 % of control | Viability of primary neuron (Mean ± SEM) ([7]; 1000 nM): 53.52 ± 2.43 % of control
